Measurements from article PMC5131319, “Occurrence, temporal trends, and half-lives of perfluoroalkyl acids (PFAAs) in occupational workers in China” (Scientific Reports, 2016).
“And” between values parts separate entries of the source, which are not always exact repeats. Identical values can stand only once. Like-named read-outs stand apart in the source and are kept apart here.

How the values were obtained:
[1] = cited from earlier work
[2] = PFAA concentration in serum of occupational workers (HPLC-ESI/MS/MS); assay type: in vivo, human; set-up: Serum PFAA level: unit: ng/mL
Description: (§1) The selected fluorochemical plant (Henxin Chemical Plant) in this study is one of the largest producers of PFOS-related chemicals in China and is located in Yingcheng, Hubei province. Perfluoroalkyl sulfonic acids (PFSAs) and perfluorotertiary amines are synthesized through an electro-chemical fluorination (ECF) process. We collected paired serum and urine samples from the occupational workers in the plant for five consecutive years, and the sampling activities were carried out in Nov. 2008, Nov. 2009, Nov. 2010, Dec. 2011, and Dec 2012, respectively. The Medical Research Ethics Committee, School of Medicine, Jianghan University, approved the ethics of this study, and all methods were performed in accordance with the relevant guidelines and regulations, moreover, all volunteers gave written informed consent. Demographic information of the donors, including gender, age, length of service, and work assignment, was collected with a questionnaire (Table S1). The sampled population included a total of 302 occupational workers, of which there were 89 female and 213 male participants. In total, 302 serum and 274 urine samples were collected.
(§2) The participants were told not to eat breakfast before the sampling, and morning urine samples and blood samples were collected. Serum was separated from the blood by centrifugation at 1100 × g at 4 °C for 10 min and then placed on ice. Serum samples were then transferred to our laboratory on the same day and stored in polypropylene containers at −20 °C until analysis.
(§3) All pre-treatment methods and instrument analysis of PFAAs in serum and urine samples are based on previous studies with minor modifications (see Supplementary Information)[3][31]. Based on the PFAA profiles in environmental matrices around the same plant in our previous study, only 3 main PFAAs, PFHxS, PFOA, and PFOS, were analyzed in the obtained serum and urine samples. Instrumental analysis of the PFAAs was performed by a HPLC-ESI/MS/MS system (HPLC: Waters 2695, MS: Waters Quattro Premier XE). The limits of detection (LODs) of PFHxS, PFOA, and PFOS were 0.020, 0.063, and 0.018 ng mL^−1 for serum samples and 0.008, 0.025, and 0.007 ng mL^−1 for urine samples, respectively. A procedural blank was performed for every batch of seven samples, and all of the blank levels were below the LODs. […] Details of quality assurance and quality control of the chemical analysis can be found in the Supplementary Information.

[3] = cited from earlier work; remark: listed apart in the source
[4] = set-up: method as in PMID 23980546, PMID 12499116, PMID 20236705; conditions: set value; cited from earlier work
[5] = PFAA concentration in morning urine of occupational workers (HPLC-ESI/MS/MS); assay type: in vivo, human; conditions: for Urine PFOA concentration: individual workers
Description: as §1, §2, §3
Urine samples were pretreated by solid phase extraction. Briefly, 1 mL of urine spiked with 5 ng of internal standard was added to a 15 - mL PP tube and diluted with 13 mL water. The solid phase extraction procedure was then performed following the previously described serum extraction procedure.

[6] = Fabric finishing agent department, N 8

For `O=C(O)C(F)(F)C(F)(F)C(F)(F)C(F)(F)C(F)(F)C(F)(F)C(F)(F)F` [PFOA, perfluorooctanoic acid], the “Shortest half-life in humans reported in previous studies” value [1] is given as 1.2 years, the “Half-life (GM)” value ([1]; retired fluorochemical production workers) is given as 3.5 years and the “Serum concentration, mean” value ([2]; All workers, N 302) is given as 1052 ng/mL. For the same compound, the “Serum concentration, median” value ([2]; All workers, N 302) was 427 ng/mL, the “Serum concentration, range” value ([2]; All workers, N 302) was 2.5 to 32000 ng/mL and the “Serum PFAA level” value ([2]; Electrolytic Department, length of service < 1 year) was 118. For the same compound, the “Serum concentration, mean” value ([2]; Electrolytic department, N 74) was 2337 ng/mL, the “Serum concentration, median” value ([2]; Electrolytic department, N 74) was 1126 ng/mL and the “Serum concentration, range” value ([2]; Electrolytic department, N 74) was 55.9 to 32000 ng/mL. For the same compound, the “Serum concentration, mean” value [2, 6] was 606 ng/mL, the “Serum concentration, median” value [2, 6] was 114 ng/mL and the “Serum concentration, range” value [2, 6] was 51 to 2600 ng/mL. For the same compound, the “Serum PFAA level” value ([2]; Management Office, length of service 1-3 years) was 48.3, the “Serum PFAA level” value ([2]; Management Office, length of service < 1 year) was 9.9 and the “Serum PFAA level” value ([2]; Management Office, length of service >3 years) was 167. For the same compound, the “Serum concentration, mean” value ([2]; Management office, N 92) was 362 ng/mL, the “Serum concentration, median” value ([2]; Management office, N 92) was 101 ng/mL and the “Serum concentration, range” value ([2]; Management office, N 92) was 2.5 to 4380 ng/mL. The “Serum PFAA level” value ([2]; Research Building, length of service 1-3 years) was 124, the “Serum PFAA level” value ([2]; Research Building, length of service >3 years) was 276 and the “Serum concentration, mean” value ([2]; Research building, N 27) was 404 ng/mL. For the same compound, the “Serum concentration, median” value ([2]; Research building, N 27) was 142 ng/mL, the “Serum concentration, range” value ([2]; Research building, N 27) was 4.7 to 2920 ng/mL and the “Serum PFAA level” value ([2]; Sulfonation Department, length of service 1-3 years) was 371. For the same compound, the “Serum PFAA level” value ([2]; Sulfonation Department, length of service < 1 year) was 185, the “Serum PFAA level” value ([2]; Sulfonation Department, length of service >3 years) was 896 and the “Serum concentration, mean” value ([2]; Sulfonation department, N 101) was 929 ng/mL. For the same compound, the “Serum concentration, median” value ([2]; Sulfonation department, N 101) was 603 ng/mL, the “Serum concentration, range” value ([2]; Sulfonation department, N 101) was 4.9 to 4630 ng/mL and the “Serum concentration, geometric mean” value ([2]; all occupational workers) was 334 ng/mL. For the same compound, the “Average serum concentration (Average ± SD)” value ([2]; female workers, n 89) was 659 ± 743 ng/mL, the concentration at 2008 calendar year ([2]; human, serum, other: occupational exposure, 46 workers sampled at least three times, 2008, read-out: Serum concentration, GM) was 368 ng/mL and the concentration at 2009 calendar year ([2]; human, serum, other: occupational exposure, 46 workers sampled at least three times, 2009, read-out: Serum concentration, GM) was 252 ng/mL. For the same compound, the concentration at 2010 calendar year ([2]; human, serum, other: occupational exposure, 46 workers sampled at least three times, 2010, read-out: Serum concentration, GM) was 622 ng/mL, the concentration at 2011 calendar year ([2]; human, serum, other: occupational exposure, 46 workers sampled at least three times, 2011, read-out: Serum concentration, GM) was 692 ng/mL and the concentration at 2012 calendar year ([2]; human, serum, other: occupational exposure, 46 workers sampled at least three times, 2012, read-out: Serum concentration, GM) was 416 ng/mL. The “Average serum concentration (Average ± SD)” value ([2]; male workers, n 213) was 1,215 ± 2,936 ng mL^−1, the “Serum concentration, GM” value ([2]; workers with service length 1–3 years) was 222 ng/mL and the “Serum concentration, GM” value ([2]; workers with service length less than 1 year) was 68 ng/mL. The “Serum concentration, GM” value ([2]; workers with service length more than 3 years) was 527 ng/mL, the “Serum concentration, geometric mean” value ([3]; occupational workers of Wang et al.) was 1272 ng/mL and the “Serum concentration, geometric mean” value ([3]; workers of the 3 M Company) was 1130 ng/mL. The “Vd (volume of distribution in the human body)” value [4] was 0.17 L/kg, the “Urine concentration, mean” value ([5]; All workers, N 274) was 4.3 ng/mL and the “Urine concentration, median” value ([5]; All workers, N 274) was 1.9 ng/mL. For the same compound, the “Urine concentration, mean” value ([5]; Electrolytic department, N 67) was 6.7 ng/mL, the “Urine concentration, median” value ([5]; Electrolytic department, N 67) was 3.5 ng/mL and the “Urine concentration, mean” value [5, 6] was 5.1 ng/mL. For the same compound, the “Urine concentration, median” value [5, 6] was 1.5 ng/mL, the “Urine concentration, range” value [5, 6] was 1.2 to 22.2 ng/mL and the “Urine concentration, mean” value ([5]; Management office, N 76) was 1.5 ng/mL. The “Urine concentration, median” value ([5]; Management office, N 76) was 0.86 ng/mL, the “Urine concentration, mean” value ([5]; Research building, N 25) was 1.8 ng/mL and the “Urine concentration, median” value ([5]; Research building, N 25) was 0.92 ng/mL. The “Urine concentration, mean” value ([5]; Sulfonation department, N 98) was 4.8 ng/mL, the “Urine concentration, median” value ([5]; Sulfonation department, N 98) was 2.7 ng/mL and the “Urine PFOA concentration” value ([5]; sampling year 2008) was 5.18 ng/mL and 0.0901 ng/mL and 0.0937 ng/mL and 0.178 ng/mL and 2.21 ng/mL and 7.6 ng/mL and 0.0489 ng/mL and 3.75 ng/mL and 2.54 ng/mL and 2.88 ng/mL and 0.67 ng/mL and 2.31 ng/mL and 1.03 ng/mL and 1.26 ng/mL and 0.0447 ng/mL and 0.688 ng/mL and 2.24 ng/mL and 2 ng/mL and 1.47 ng/mL and 0.668 ng/mL and 0.709 ng/mL and 0.448 ng/mL and 4.18 ng/mL and 5 ng/mL and 8.09 ng/mL and 7.15 ng/mL and 6.68 ng/mL. The “Urine PFOA concentration” value ([5]; sampling year 2009) was 3.45 ng/mL and 8.82 ng/mL and 14.8 ng/mL and 1.48 ng/mL and 15.8 ng/mL and 19.6 ng/mL and 6.9 ng/mL and 5.24 ng/mL and 1.14 ng/mL and 1.2 ng/mL and 1.69 ng/mL and 0.889 ng/mL and 4 ng/mL and 0.515 ng/mL and 2.24 ng/mL and 5.25 ng/mL and 1.05 ng/mL and 0.776 ng/mL and 0.537 ng/mL and 12.4 ng/mL and 4.34 ng/mL and 1.12 ng/mL and 15.3 ng/mL and 19.1 ng/mL and 10 ng/mL and 4.81 ng/mL.
